# Data published in patent US20210401926A1, “PHARMACEUTICAL FORMULATIONS OF PEPTIDE INHIBITORS” (CANIMGUIDE THERAPEUTICS AB, priority 2018, published 2021).
# Where no end group is shown, it is not given here.
# Tests used:
# healthy PBMC's = assay: PBMC activation, CD69 or CD71 by flow cytometry, normal human AB serum; format: cell-based; settings: 40 μg/mL, 24 hours, RPMI plus 10% human AB serum
# Protocol: FIG. 2A-B are a series of graphs illustrating effects of the full length peptide P28R and the 6 amino acid central sequence (32230, FFVKLS, SEQ ID NO: 1) in culture medium containing normal human AB serum. Activation is determined as percentage of cells with enhanced marker CD69 or CD71 using flow cytometry. PBMCs were incubated with the peptides (40 μg/mL) for 24 hours in RPMI plus 10% human AB serum. FIG. 2A illustrates the results of two experiments (420 and 422) performed for each peptide. FIG. 2B illustrates the results of two experiments (424 and 426) performed for each peptide.
# P28R (SEQ ID NO: 2) can stimulate PBMC's from healthy controls in short term cultures when RPMI plus 10% normal human AB serum is used as culture medium. Truncations of P28R were also assessed for their ability to activate PBMC's. PBMCs were incubated with the peptides (40 μg/mL) for 24 hours in RPMI plus 10% human AB serum. PBMC activation was measured as percent cells with enhanced expression of either CD69 (FIG. 2A) or CD71 (FIG. 2B) using flow cytometry. Two experiments were performed for each peptide.
# A test for direct stimulatory effects on immune cells was performed.
# PBMCs [1] = assay: PBMC activation (CD69) in culture medium containing cancer sera; format: cell-based; settings: sera from dogs with cancer or human patients with cancer instead of normal AB serum
# Protocol: FIG. 3 is a graph illustrating a comparison of the full length peptide P28R and the 6 amino acid “P28 core” sequence (32230, FFVKLS, SEQ ID NO: 1) in culture medium containing sera from two different cancer patients (“human ca serum 1” 430 and (“human ca serum 2” 432).
# Additionally, P28R and P28 core were tested for their ability to alleviate immunosuppression in cancer cells.
# PBMCs [2] = assay: Direct binding to PBMCs (immunocytochemistry, rosetting of coated beads); settings: immunocytochemistry or rosetting of coated beads
Substance,PBMC activation (enhanced expression of CD69 or CD71) (healthy PBMC's),PBMC activation (enhanced expression of CD69) (PBMCs [1]),binding to PBMCs (PBMCs [2])
"peptide 32251: truncation of P28R, SEQ ID NO: 4 (KKLDTFFPKLSLFTER; Peptide 32251)",did not activate healthy PBMC's,–,–
FFVKLS (Peptide 32230),did not activate healthy PBMC's,activated PBMCs,–
"biotinylated P28R: biotinylated P28R (KKLDTFFVKLSLFTER; also: biotinylated, site not given here)",–,–,bind directly to PBMCs
